Target: T1, Dipeptidyl peptidase 1 (Mus musculus, UniProt P97821)
T1 sequence (P97821 whole entry): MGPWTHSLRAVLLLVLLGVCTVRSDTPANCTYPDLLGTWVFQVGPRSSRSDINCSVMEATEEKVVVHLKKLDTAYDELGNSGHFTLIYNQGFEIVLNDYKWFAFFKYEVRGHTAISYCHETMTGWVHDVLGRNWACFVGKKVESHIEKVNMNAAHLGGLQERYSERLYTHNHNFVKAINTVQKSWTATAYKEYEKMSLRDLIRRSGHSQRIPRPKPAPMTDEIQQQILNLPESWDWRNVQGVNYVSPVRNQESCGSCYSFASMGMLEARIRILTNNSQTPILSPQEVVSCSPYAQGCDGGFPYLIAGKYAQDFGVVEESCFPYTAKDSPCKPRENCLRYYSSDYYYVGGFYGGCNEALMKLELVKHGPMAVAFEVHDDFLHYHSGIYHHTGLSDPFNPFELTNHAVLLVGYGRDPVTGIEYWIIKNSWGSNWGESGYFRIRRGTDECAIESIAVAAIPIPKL
Assay: Compound was evaluated to inhibit cathepsin C (Dipeptidyl peptidase I) in non competitive binding assay

| Compound | Ki [µM] |
| --- | --- |
| COC(=O)CCP(=O)(O)C(CCc1ccccc1)NC(=O)CN (stereo not drawn) | 312 |
| COC(=O)CCP(=O)(O)C(NC(=O)CN)c1ccccc1 (stereo not drawn) | 188 |
| NCC(=O)NC(Cc1ccccc1)P(=O)(O)CCC(=O)O (stereo not drawn) | 429 |
| COC(=O)CCP(=O)(O)C(Cc1ccccc1)NC(=O)CN (stereo not drawn) | 514 |

Continued, values first:

| Ki [µM] | Compound |
| --- | --- |
| 39 | CC(C)CC(NC(=O)CN)P(=O)(O)CCC(=O)O (stereo not drawn) |
| 40 | COC(=O)CCP(=O)(O)C(CC(C)C)NC(=O)CN (stereo not drawn) |
| 176 | NCC(=O)NC(c1ccccc1)P(=O)(O)CCC(=O)O (stereo not drawn) |
| 187 | NCC(=O)NC(CCc1ccccc1)P(=O)(O)CCC(=O)O (stereo not drawn) |

— ChEMBL document CHEMBL1146785, “Synthesis and activity of phosphinic tripeptide inhibitors of cathepsin C” (Bioorg Med Chem Lett, 2004)
